According to patent US20110281812A1, “Compounds” (priority 2009, published 2011):
Where two headings read alike, the source gives them in different places.

Assays:
Male BALB/c mice = assay: Cigarette-smoke-induced lung neutrophilia; assay type: in vivo; settings: oral gavage; for reduction of neutrophil number in BALF, statistical significance: p<0.05 vs vehicle control
Protocol: Male BALB/c mice (weighing 21-24 g, were randomly grouped, 5 animals per group) were pre-treated with compound (100, 30, 10, 3 and 1 mg/kg body weight) or vehicle (5% DMSO/95% methyl-cellulose 0.5% w/v, positive control) by oral gavage in a volume of 10 mL/kg. 2 hours after compound administration, 10 mice were placed into a plexiglass box (Braintree Scientific, size 10″×4″×4″) with an input port for aerosol and another port for exhaust. Cigarette smoke was introduced through the aerosol port via a peristaltic pump (Masterflex L/S, Digital Economy Drive) set at 40 ml/min. Breathing air was also introduced through the same port via an elbow in the tubing at a rate of 0.4 L/min. With these settings, smoke concentration delivered to the box was approximately 10%. 3 cigarettes (research type 4A1, University of Kentucky Tobacco Institute) were given back-to-back with a 1 min period between each one, when the mice breathed fresh air for one minute. 2 to 3 hours after the first group of cigarettes, 2 additional cigarettes were given, again allowing 1 min between each cigarette. After the last cigarette, the mice were returned to their normal housing. This procedure was carried out for 2 days.
On the 3rd day, mice were euthanized with 0.1 ml Fatal Plus i.p., then bronchoalveolar lavaged with 5×0.7 ml Dulbecco's phosphate-buffered saline (dPBS, in-house Media Prep lab) through a tracheal tube. BALF was spun at 3000 rpm for 10 min, the supernatant discarded, and the cells resuspended with 1 ml dPBS. Slides were made on a cytospin (100 μl fluid, spun at 300 rpm for 5 min), then stained with Diff Quick for differential counts (minimum of 200 cells counted). Total cell counts were performed with a hemocytometer after a dilution with Tuerks solution.
Results are expressed as percentage decrease in number of neutrophils in BALF of treated animals compared to positive control (vehicle treated and smoke challenged animals).

[1] = test system: IL-6 production in LPS-stimulated murine spleenocytes; assay: Inhibition of IL-6 production in LPS-stimulated murine spleenocytes in vitro; assay type: cell-based; settings: Mus musculus, 50 μM concentration of the compound, read-out: inhibition of interleukin-6 (IL-6) production
Protocol: Test and reference substances used in an in vitro assays were dissolved in dimethyl sulfoxide (DMSO) (Sigma Chemical Co., USA) at a concentration of 50 mM and were further diluted to test concentrations in appropriate cell culture medium.
After cervical dislocation, mouse spleens were removed using sterile dissection tools. Spleens were transferred to a pre-wetted cell strainer in a 50 mL sterile conical tube and cell suspension was made by gentle puddle. Cells were centrifuged (20 min, 300×g) and resuspended in 2 mL of sterile phosphate buffered saline (PBS) (Sigma Chemical Co., USA). Red blood cells were lysed by addition of 3 mL of sterile water and occasionally gentle shaking for 1 minute. Afterwards, the tube was filled to 40 mL with DMEM medium and centrifuged (20 min, 300×g). Cells were resuspended in DMEM supplemented with 1% FBS and seeded in a 24-well plate, 1×10^6 cells per mL medium.
Final concentrations of 50 μM, 25 μM, 12.5 μM, 6.3 μM and 3.1 μM of test compounds were prepared by diluting a 50 mM DMSO stock in Dulbecco's modified Eagle medium (DMEM) (Gibco, USA) supplemented with 1% heat inactivated fetal bovine serum (FBS) (BioWest, Ringmer, United Kingdom).
Cells were pre-incubated with the test compounds for 3 h at 37° C., in an atmosphere of 5% CO2 and 90% humidity. Afterwards, cells were stimulated with 1 μg/mL lipopolysaccharide (LPS, E. coli 0111:B4, Sigma Chemical Co., USA) and incubated overnight. Concentration of IL-6 was determined in cell supernatants by sandwich ELISA using capture and detection antibodies (R&D Systems, USA) according to the manufacturer's recommendations.
Inhibition (as percentage) was calculated using the following formula:
% inhibition=[1−(concentration of IL-6 in sample−concentration of IL-6 in negative control)/(concentration of IL-6 in positive control−concentration of IL-6 in negative control)]×100.
The positive control refers to LPS-stimulated samples that were not preincubated with the compounds.
The negative control refers to unstimulated and untreated samples.

male BALB/cJ mice = assay: Lung neutrophilia induced by bacterial lipopolysaccharide in male BALB/cJ mice - Method B; assay type: in vivo; settings: Mus musculus, ip, 24 h, single dose of 100 mg/kg i.p., vs LPS challenged untreated animals
Protocol: For intraperitoneal administration (i.p.) compounds were dissolved in a final concentration of 10 mg/mL. The required amount of compound was first dissolved in dimethylsulfoxide (DMSO, Sigma) and then diluted with 0.5% (w/v) methyl-cellulose so that the final DMSO concentration was 5% (v/v). The obtained solution was applied in a dose volume of 0.1 mL per 10 g of animal. Therefore, the compound dose was 100 mg/kg.
Male BALB/cJ mice (Charles River, Germany), with an average weight of ˜25 g were randomly grouped (n=8 in testing group, 10 in positive control and 6-8 in negative control). Mice received intraperitoneally (i.p.) a single dose of 100 mg/kg of test compound. Two hours after administration, 0.4 μg of LPS (from Escherichia coli serotype 0111:B4, Sigma), dissolved in sterile saline (0.9% NaCl) in a volume of 50 μL, was intranasally administered to all experimental groups except the negative control group, which received the same volume of vehicle (saline). Animals were sacrificed approximately 24 hours after application of LPS in order to obtain bronchoalveolar lavage fluid (BALF), which was used to determine absolute number of cells and the percentage of neutrophils. […] In some experiments neutrophil levels in BALF were assessed by measurement of concentration of a neutrophil-specific enzyme myeloperoxidase (MPO). Results are then expressed as percentage of decrease in myeloperoxidase (MPO) concentration measured in BALF lysates of treated animals compared to positive control (Mouse MPO ELISA Kit, Hycult biotechnology, Nederlands). For this purpose, BALF was sonicated after addition of 1.5% Triton-X-100 (Pharmacia Biotech) in Milli-Q water and frozen at −80° C. until analysed.

[2] = Neutrophil, read-out: inhibition of number of neutrophils or decrease in myeloperoxidase concentration in BALF
[3] = read-out: inhibition of total cell number in BALF

| Structure (SMILES) | reduction of neutrophil number in BALF, statistical significance (Male BALB/c mice; dose of 100 mg/kg) | inhibition of neutrophil number in BALF (Male BALB/c mice; dose of 100 mg/kg, vs vehicle treated smoke challenged animals) | inhibition at 50 µM [1] | inhibition in vivo at 100 mg/kg (male BALB/cJ mice; [2]) | inhibition in vivo at 100 mg/kg (male BALB/cJ mice; [3]) | reduction of neutrophil number in BALF, statistical significance (Male BALB/c mice; dose of 30 mg/kg) |
| --- | --- | --- | --- | --- | --- | --- |
| CCC(=O)NCCCO[C@H]1[C@H](O[C@@H]2[C@@H](C)[C@H](O[C@H]3C[C@@](C)(OC)[C@@H](O)[C@H](C)O3)[C@@H](C)C(=O)O[C@H](CC)[C@@](C)(O)[C@H](O)[C@@H](C)N(C)C[C@H](C)C[C@@]2(C)O)O[C@H](C)C[C@@H]1N(C)C [Example 2, 2′-O-[3-(Propanoylamino)propyl]-9-deoxo-9a-methyl-9a-aza-9a-homoerythromycin A] | no statistical significance | less than 10% | > 40% | – | – | – |
| CC[C@H]1OC(=O)[C@H](C)[C@@H](O[C@H]2C[C@@](C)(OC)[C@@H](O)[C@H](C)O2)[C@H](C)[C@@H](O[C@@H]2O[C@H](C)C[C@H](N(C)C)[C@H]2OCCCNC(=O)COC)[C@](C)(O)C[C@@H](C)CN(C)[C@H](C)[C@@H](O)[C@]1(C)O [Example 16, 2′-O-{3-[(Methoxyacetyl)amino]propyl}-9-deoxo-9a-methyl-9a-aza-9a-homoerythromycin A] | – | – | > 40% | > 50% | > 50% | statistically significantly reduced |
| CC[C@H]1OC(=O)[C@H](C)[C@@H](O[C@H]2C[C@@](C)(OC)[C@@H](O)[C@H](C)O2)[C@H](C)[C@@H](O[C@@H]2O[C@H](C)C[C@H](N(C)C)[C@H]2OCCCNC(=O)c2cccnc2)[C@](C)(O)C[C@@H](C)CN(C)[C@H](C)[C@@H](O)[C@]1(C)O [Example 20, 2′-O-{3-[(3-Pyridinylcarbonyl)amino]propyl}-9-deoxo-9a-methyl-9a-aza-9a-homoerythromycin A] | – | – | > 40% | > 30% | > 30% | – |
| CCOCC(=O)NCCCO[C@H]1[C@H](O[C@@H]2[C@@H](C)[C@H](O[C@H]3C[C@@](C)(OC)[C@@H](O)[C@H](C)O3)[C@@H](C)C(=O)O[C@H](CC)[C@@](C)(O)[C@H](O)[C@@H](C)N(C)C[C@H](C)C[C@@]2(C)O)O[C@H](C)C[C@@H]1N(C)C [Example 21, 2′-O-{3-[(Ethyloxyacetyl)amino]propyl}-9-deoxo-9a-methyl-9a-aza-9a-homoerythromycin A] | – | – | > 40% | > 50% | > 50% | statistically significantly reduced |
| CC[C@H]1OC(=O)[C@H](C)[C@@H](O[C@H]2C[C@@](C)(OC)[C@@H](O)[C@H](C)O2)[C@H](C)[C@@H](O[C@@H]2O[C@H](C)C[C@H](N(C)C)[C@H]2OCCCNC(=O)C2CCOCC2)[C@](C)(O)C[C@@H](C)CN(C)[C@H](C)[C@@H](O)[C@]1(C)O [Example 25, 2′-1-{3-[(Tetrahydro-2H-pyran-4-ylcarbonyl)amino]propyl}-9-deoxo-9a-methyl-9a-aza-9a-homoerythromycin A] | – | – | > 40% | > 50% | > 50% | – |
